Data taken from publication PMC7824081, “Inhibition of DOT1L by Half-Selenopsammaplin A Analogs Suppresses Tumor Growth and EMT-Mediated Metastasis in Triple-Negative Breast Cancer” (Pharmaceuticals, 2020).

What was measured:
Format in all cases: cell-based, human
[1] = test system: MCF10A normal breast epithelial cells; test: SRB cell proliferation assay, MCF10A; conditions: Homo sapiens, MCF-10A, 72 h
Experimental: Human breast epithelial cell line (MCF10A) and human TNBC cell lines (MDA-MB-468, MDA-MB-231, Hs578T, and HCC38 cells) were provided by the American Type Culture Collection (Manassas, VA, USA). MCF10A cells were cultured in Dulbecco’s Modified Eagle’s Medium/Nutrient Mixture F-12 containing 5% donor horse serum, 100 ng/mL cholera toxin, 10 µg/mL human insulin, 20 ng/mL epidermal growth factor, 0.5 µg/mL hydrocortisone, and penicillin-streptomycin (sodium penicillin G: 100 units/mL; streptomycin: 100 μg/mL). The TNBC cells were cultured in medium [Dulbecco’s Modified Eagle’s Medium for MDA-MB-468, MDA-MB-231, and Hs578T cells; Roswell Park Memorial Institute 1640 medium for HCC38 cells] supplemented with penicillin-streptomycin and 10% fetal bovine serum at 37 °C in a humidified incubator with 5% carbon dioxide. MCF10A cells were cultured in DMEM/F12 containing 5% donor horse serum, 100 ng/mL cholera toxin, 10 µg/mL human insulin, 20 ng/mL epidermal growth factor, 0.5 µg/mL hydrocortisone and penicillin-streptomycin. All reagents used for cell culture, including culture medium, fetal bovine serum, trypsin-EDTA solution (1×), and penicillin-streptomycin solution (100×), were purchased from Gibco (Grand Island, NE, USA). Laemmli sample buffer (2×) and 2-mercaptoethanol were purchased from Bio-Rad Laboratories, Inc. (Hercules, CA, USA). EPZ-5676 was purchased from Cayman Chemical (Ann Arbor, MI, USA). Dimethyl sulfoxide (DMSO), bicinchoninic acid, copper (II) sulfate solution, bovine serum albumin (BSA), trichloroacetic acid, sulforhodamine B (SRB), and paclitaxel were purchased from Sigma–Aldrich (St. Louis, MO, USA).
Cell proliferation was evaluated using the SRB assay. Briefly, cells were seeded in 96-well plates and incubated for 30 min (for 0-day controls) or treated with test compounds for the times indicated. After incubation, the cells were fixed, dried, and stained with 0.4% (w/v) SRB in 1% (v/v) acetic acid solution. Unbound dye was removed by washing, and stained cells were dissolved in 10 mM Tris (pH 10.0). Cell proliferation was then determined by measuring the absorbance at 515 nm.

MDA-MB-231 cells [2] = test: Transwell cell invasion assay; conditions: 24 h pretreatment, 24 h Transwell
Experimental: Twenty-four-well Transwell membrane inserts (diameter: 6.5 mm, pore size: 8 μm; Corning, Tewksbury, MA, USA) were each coated with 10 μL of type I collagen (0.5 mg/mL, BD Biosciences, San Diego, CA, USA) and 20 μL of a 1:20 mixture of Matrigel (BD Biosciences) in PBS. After treatment with the indicated compounds for 24 h, MDA-MB-231 human TNBC cells were harvested, resuspended in serum-free medium, and plated (2 × 10^5 cells/chamber) in the upper chambers of the Matrigel-coated Transwell inserts. Medium containing 30% FBS was used as a chemoattractant in the lower chambers. After a 24 h incubation, the cells that had migrated to the outer surfaces of the lower chambers were fixed and stained using the Diff-Quik Staining Kit (Sysmex, Kobe, Japan) and imaged using a Vectra 3.0 Automated Quantitative Pathology Imaging System (Perkin Elmer, Waltham, MA, USA). Representative images from three separate experiments are shown, and the numbers of invaded cells were counted in 5 randomly selected microscopic fields (200× magnification).

MDA-MB-231 cells [3] = test: Wound healing assay (cell migration); conditions: 24 h
Experimental: MDA-MB-231 human TNBC cells were grown to 90% confluence in a 6-well plate. Subsequently, each cell monolayer was artificially wounded using a Scratcher (SPL Life Sciences, Pocheon, Republic of Korea), and the detached cells were removed by washing with phosphate-buffered saline (PBS, Invitrogen Corp., Carlsbad, CA, USA). The wounded cultures were then incubated with medium containing 1% FBS and various concentrations of 9l and PsA for 24 h. The wounds were photographed at 0 and 24 h under an inverted microscope (Olympus, Tokyo, Japan). The wound areas were quantified using ImageJ software (National Institutes of Health, Bethesda, MD, USA) and presented as the percent wound healing (%) relative to the wound area at 0 h.

CC(C)(C)c1ccc(C/C(=N\O)C(=O)NCC[Se]Sc2ccccc2)cc1 [9l, (E)-3-(4-(tert-Butyl)phenyl)-2-(hydroxyimino)-N-(2-((phenylthio)selanyl)ethyl)propanamide]
IC50 [1]: 25.9 µM | cell invasion (MDA-MB-231 cells [2]): significantly inhibited | wound closure (cell migration) (MDA-MB-231 cells [3]): significantly inhibited
